Assay results: patent US5202315A, “Cephalosporin compounds” (Lucky, Ltd., priority 1989, dated 1993)
In brackets after ≈: the same amount, converted by molar mass. Where two headings read alike, the source gives them in different places.

Key:
Escherichia coli = experiment: Antibacterial activity against clinically isolated strains, MIC; type: cell-based; settings: 38 clinical isolates, broth microdilution test
[1] = test system: Staphylococcus aureus methicillin resistant; experiment: as above; type: cell-based; settings: methicillin resistant, 7 clinical isolates, broth microdilution test; for MIC90: read-out: MIC 90%
Pseudomonas aeruginosa = experiment: as above; type: cell-based
Pseudomonas = experiment: Antibacterial activity; type: cell-based; settings: statement in words
[2] = In-vivo absorbency (plasma concentrations & pharmacokinetic parameters); set-up: species or system SD rat (male); settings: plasma, SD male rat, iv 20 mg/kg, read-out: Plasma Conc.
[3] = test system: Streptococcus faecalis ATCC 29212; experiment: Antibacterial activity, MIC; type: cell-based; settings: Enterococcus faecalis, ATCC29212; ATCC 29212; agar two-fold dilution, 37° C., 20 hours; read-out: MIC
Method in brief: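 Incubation at 37 °C for 20 h followed inoculation of 2 μl standard strain (10^7 CFU/ml) onto agar carrying the compound. Compound was incorporated into Mueller-Hinton agar as two-fold serial dilutions.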

[4] = 54 clinical isolates, broth microdilution test
[5] = 54 clinical isolates, broth microdilution test, read-out: MIC 90%

| Compound | MIC50 (Escherichia coli) | MIC90 (Escherichia coli) | MIC50 [1] | MIC90 [1] | MIC50 (Pseudomonas aeruginosa; [4]) | MIC90 (Pseudomonas aeruginosa; [5]) | antibacterial activities, especially against Pseudomonas (Pseudomonas) | concentration at 1 min [2] | concentration at 2.5 min [2] | concentration at 5 min [2] | concentration at 10 min [2] | concentration at 20 min [2] | concentration at 40 min [2] | MIC [1] | MIC90 (Pseudomonas aeruginosa) | MIC [3] | concentration at 2.5 h ([2]; 150 min) |
| --- | --- | --- | --- | --- | --- | --- | --- | --- | --- | --- | --- | --- | --- | --- | --- | --- | --- |
| C[n+]1c(N)cc(N)nc1SCC1=C(C(=O)[O-])N2C(=O)C(NC(=O)/C(=N\OC(C)(C)C(=O)O)c3csc(N)n3)[C@H]2SC1 (stereo partly shown) [Compound I-1, 7-[(Z)-2-(2-aminothiazol-4-yl)-2-(2-carboxyprop-2-oxyimino)acetamido]-3-(4,6-diamino-1-methylpyrimidinium-2-yl) thiomethyl-3-cephem-4-carboxylate] | 0.063 µg/mL (≈ 0.101 µM) | 0.13 µg/mL (≈ 0.208 µM) | > 128 µg/mL | > 128 µg/mL | 1 µg/mL (≈ 1.6 µM) | 4 µg/mL (≈ 6.41 µM) | excellent | 152000 ng/mL | 101000 ng/mL | 65000 ng/mL | 45000 ng/mL | 29000 ng/mL | 14000 ng/mL |  |  |  |  |
| CC[n+]1c(N)cc(N)nc1SCC1=C(C(=O)[O-])N2C(=O)C(NC(=O)/C(=N\OC(C)(C)C(=O)O)c3csc(N)n3)C2SC1 (stereo not shown) [Compound I-2] | 0.063 µg/mL (≈ 0.0988 µM) | 0.13 µg/mL (≈ 0.204 µM) | > 128 µg/mL | > 128 µg/mL | 2 µg/mL (≈ 3.14 µM) | 4 µg/mL (≈ 6.27 µM) |  | 55000 ng/mL | 33000 ng/mL | 22000 ng/mL | 14000 ng/mL | 7300 ng/mL | 4500 ng/mL |  |  |  |  |
| CC(O/N=C(\C(=O)NC1C(=O)N2C(C(=O)[O-])=C(CSc3nc(N)cc(N)[n+]3C)CSC12)c1csc(N)n1)C(=O)O (stereo not shown) [Compound I-4] | 0.031 µg/mL (≈ 0.0508 µM) | 0.063 µg/mL (≈ 0.103 µM) | > 32 µg/mL | > 32 µg/mL | 4 µg/mL (≈ 6.56 µM) |  |  | 64000 ng/mL | 42000 ng/mL | 32000 ng/mL | 14000 ng/mL | 7300 ng/mL | 4500 ng/mL | > 32 µg/mL | 16 µg/mL (≈ 26.2 µM) |  |  |
| CC[n+]1c(N)cc(N)nc1SCC1=C(C(=O)[O-])N2C(=O)C(NC(=O)/C(=N\OC(C)C(=O)O)c3csc(N)n3)C2SC1 (stereo not shown) [Compound I-5] | 0.063 µg/mL (≈ 0.101 µM) | 0.13 µg/mL (≈ 0.208 µM) | > 128 µg/mL | > 128 µg/mL | 4 µg/mL (≈ 6.41 µM) | 8 µg/mL (≈ 12.8 µM) |  | 134000 ng/mL | 91000 ng/mL | 72000 ng/mL | 49000 ng/mL | 29000 ng/mL | 13000 ng/mL |  |  |  |  |
| C[n+]1c(N)cc(N)nc1SCC1=C(C(=O)[O-])N2C(=O)C(NC(=O)/C(=N\OCC(=O)O)c3csc(N)n3)C2SC1 (stereo not shown) [Compound I-7] | 0.016 µg/mL (≈ 0.0269 µM) | 0.063 µg/mL (≈ 0.106 µM) | > 32 µg/mL | > 32 µg/mL | 4 µg/mL (≈ 6.72 µM) |  |  | 128000 ng/mL | 83000 ng/mL | 59000 ng/mL | 43000 ng/mL | 29000 ng/mL | 15000 ng/mL | > 32 µg/mL | 16 µg/mL (≈ 26.9 µM) | > 128 µg/mL |  |
| CCO/N=C(\C(=O)NC1C(=O)N2C(C(=O)[O-])=C(CSc3nc(N)cc(N)[n+]3N)CSC12)c1csc(N)n1 (stereo not shown) [Compound I-16] | 0.13 µg/mL (≈ 0.229 µM) | 0.25 µg/mL (≈ 0.441 µM) | > 32 µg/mL | > 32 µg/mL | 4 µg/mL (≈ 7.06 µM) |  |  | 149000 ng/mL | 106000 ng/mL | 79000 ng/mL | 52000 ng/mL | 32000 ng/mL | 13000 ng/mL |  | 16 µg/mL (≈ 28.2 µM) | 32 µg/mL (≈ 56.5 µM) |  |
| Cc1c(N)nc(SCC2=C(C(=O)[O-])N3C(=O)C(NC(=O)/C(=N\OC(C)(C)C(=O)O)c4csc(N)n4)C3SC2)[n+](C)c1N (stereo not shown) [Compound I-30] | 0.13 µg/mL (≈ 0.204 µM) | 0.25 µg/mL (≈ 0.392 µM) | > 128 µg/mL | > 128 µg/mL | 2 µg/mL (≈ 3.14 µM) | 4 µg/mL (≈ 6.27 µM) |  | 148000 ng/mL | 100000 ng/mL | 80000 ng/mL | 54000 ng/mL | 29000 ng/mL | 17000 ng/mL |  |  |  | 1300 ng/mL |
| CCC[n+]1c(N)cc(N)nc1SCC1=C(C(=O)[O-])N2C(=O)C(NC(=O)/C(=N\OC(C)C(=O)O)c3csc(N)n3)C2SC1 (stereo not shown) [Compound I-45] | 0.13 µg/mL (≈ 0.204 µM) | 0.13 µg/mL (≈ 0.204 µM) | > 128 µg/mL | > 128 µg/mL | 4 µg/mL (≈ 6.27 µM) |  |  | 147000 ng/mL | 84000 ng/mL | 67000 ng/mL | 52000 ng/mL | 29000 ng/mL | 16000 ng/mL |  | 16 µg/mL (≈ 25.1 µM) | > 128 µg/mL |  |
